From US20140057829A1, “Citrullinated Histone H3 (Cit H3) in Septic Shock” (THE GENERAL HOSPITAL CORPORATION, priority 2011, published 2014)
Entries after “also recorded” stand apart in the source; their conditions may differ.

Assays:
[1] = system: TNF-α; experiment: Serum TNF-α ELISA after small or large dose of LPS; assay type: in vivo, mice; settings: 3 h after endotoxin insult
Procedure: There is general agreement that the main pathogenic mediator in lethal septic shock is TNF-α (Beutler and Cerami, Annu Rev Immunol. 7: 625-55, 1989). To determine whether TNF-α can predict lethality of LPS-induced shock as well as Cit H3, blood was collected from sham, LPS (SD), and LPS (LD) groups at 3 h after LPS injection (n=5/group). Quantitative determination of TNF-α in the blood of mice was made using Quantikine Enzyme-Linked Immunosorbent Assay (ELISA) Kit (R&D Systems, Minneapolis, Minn.) according to manufacturer's instruction. The concentration of the cytokine was measured by optical densitometry at 450 nm in a SpectramaxPlus 384 microplate reader (Molecular Devices, Sunnyvale, Calif.). All of the analyses were performed in triplicates.

[2] = system: HL-60 granulocytes; experiment: Western blots of H3, Ac H3 and Cit H3 in lysates and medium of LPS-stimulated HL-60 granulocytes; assay type: cell-based, human; settings: 3 h
Procedure: Neutrophils might be a source of serum histone H3 during sepsis. To test whether histone H3 deimination/citrullination is induced as part of the neutrophil response to bacterial endotoxin, HL-60 cells obtained from American Type Culture Collection (ATCC) were maintained in Iscove's modified DMEM medium (Invitrogen Life Technologies, Carlsbad, Calif.) supplemented with 20% fetal bovine serum (FBS). These cells were grown at 37° C. in a humidified incubator in 5% CO2 and 95% air, and differentiated into granulocytes by culturing the cells in medium containing 1 μM ATRA for 3 days. The ATRA-differentiated HL-60 granulocytes were treated with 4 μM calcium ionophore in medium containing 1.5 mM calcium chloride, and then incubated with LPS (100 ng/ml) in the presence or absence of SAHA (10 μM) over 3 h. Following incubation, medium was collected, and cell lysates were prepared. The medium and the lysates were tested for H3, Ac H3, Cit H3 and actin (internal control) by Western blots. To ensure there was no false positive data that may be produced from the medium with dead cells, the cells were carefully treated and a sham group was also set up as a control.

[3] = system: serum Cit H3 and H3; experiment: Serum Cit H3, H3 and Ac H3 by Western blot after small or large dose of LPS; assay type: in vivo, mice; settings: 3 h after injection
Procedure: The samples were analyzed by Western blot with anti-histone H3 antibody. Western blot analysis was performed as follows. Proteins (about 100 μg per lane) were separated by sodium dodecyl sulphate-polyacrylamide gel electrophoresis (SDS-PAGE) on 15% polyacrylamide gels and transferred onto nitrocellulose membranes (Bio-Rad Laboratories, Hercules, Calif.). The membranes were blocked in 0.05% PBS-Tween (PBST) containing 5% milk (Bio-Rad Laboratories, Hercules, Calif.) and then incubated with the primary antibody at 4° C. overnight. The primary antibody was detected by incubation with horseradish peroxidase-coupled second antibody (1:3,000 in PBST with 5% milk) at room temperature for 2 h. The chemiluminescence detection was performed by using WesternLighting Chemiluminescence Reagent Plus (PerkinElmer LAS, Inc., Boston, Mass.). Films were developed using a standard photographic procedure and quantitative analysis of detected bands was carried out by densitometer scanning using VersaDoc Imaging System (BioRad Laboratories, Hercules, Calif.).
It has been reported that the effects of LPS on lethality and protein expression are dose-dependent (Barton and Jackson, Infect Immun. 1993; 61(4): 1496-1499; Haque et al., Pneumon. 2009; 22(2): 143-155). […] The serum levels of all three histone H3 were then measured and correlated to mortality. […]

[4] = system: mice; experiment: Survival of mice after small or large dose of LPS; assay type: in vivo; settings: for survival rate: 7 day observation
Procedure: (§1) To assure that the data were reliable, independent serum samples were collected and analyzed. As in a previous study (Li et al., Shock. 2009; 32(5): 517-523), male C57B1/6J mice (n=9, 3/group) weighing 25-30 g (purchased from Jackson Labs (Bar Harbor, Me.)) were randomly divided into two groups: LPS control, and SAHA+LPS. Normal saline (10 μl/g body weight) or LPS (20 mg/kg) dissolved in normal saline was injected intraperitoneally. The mice were given DMSO (1 μl/g body weight) or SAHA (50 mg/kg) dissolved in DMSO intraperitoneally 2 hours (h) before, and then soon after injection of LPS. Sham mice (no LPS, no SAHA) were used as the control. Serum separated from these blood samples was saved at −80° C. and used for the current experiment. In the present study, a large dose (35 mg/kg) or a small dose (10 mg/kg) of LPS was administrated intraperitoneally. All animals were housed in plastic cages and had access to chow and water throughout the experiment. The animals were kept at room temperature (24±2° C.) and exposed to alternative cycles of 12 h light and darkness. Survival rate was then recorded for over the next 7 days. Blood was collected from the orbital sinus (as described in Hoff, Lab Animal. 2000; 29(10): 47-53) at 3 h after LPS injection.
It has been reported that the effects of LPS on lethality and protein expression are dose-dependent (Barton and Jackson, Infect Immun. 1993; 61(4): 1496-1499; Haque et al., Pneumon. 2009; 22(2): 143-155). To determine whether serum levels of H3, Cit H3 and acetylated H3 were dependent on the LPS dose, the mice were injected with a small dose ([…]) or a large dose ([…]). The serum levels of all three histone H3 were then measured and correlated to mortality. Mice were randomly divided into three groups (n=10/group): (1) sham group (no LPS), (2) LPS small dose (SD) group, and (3) LPS large dose (LD) group. Blood was collected at 3 h after LPS injection and serum was prepared for immunoblotting.

[5] = system: histone H3 in serum; experiment: Serum histone H3 by Western blot in LPS-induced septic shock mice treated with or without SAHA; assay type: in vivo; settings: blood 3 h after LPS
Procedure: as §1, with “All animals were housed in plastic cages and had access to chow and water throughout the experiment. The animals were kept at room temperature (24±2° C.) and exposed to alternative cycles of 12 h light and darkness.” left out, “Blood was collected from the orbital sinus (as described in Hoff, Lab Animal. 2000; 29(10): 47-53) at 3 h after LPS injection.” left out
The samples were analyzed by Western blot with anti-histone H3 antibody. […] The primary antibody was detected by incubation with horseradish peroxidase-coupled second antibody (1:3,000 in PBST with 5% milk) at room temperature for 2 h. […] Films were developed using a standard photographic procedure and quantitative analysis of detected bands was carried out by densitometer scanning using VersaDoc Imaging System (BioRad Laboratories, Hercules, Calif.).

[6] = system: rodent models of LPS-induced septic shock; settings: rodent models of LPS-induced septic shock (Li et al. 2009, 2010); cited from earlier work
[7] = system: histone H3 in serum; experiment: iTRAQ screen for serum biomarkers in LPS-induced septic shock and SAHA treatment; assay type: in vivo; settings: LPS-induced septic shock; 5 h after first SAHA treatment, 3 h after LPS injection
Procedure: To identify biomarkers of septic shock and treatment, isobaric tag labeling for relative and absolute quantitation (iTRAQ) was performed as described in WO 2010/126635 (which is incorporated herein by reference) in sham (no LPS and no treatment), septic shock (3 h after LPS injection) and SAHA treated (5 h after the first SAHA treatment, and 3 h after LPS injection) animals. Several potential serum biomarkers in LPS-induced septic shock and treatment were found. One of them was histone H3, a chromatin protein in nucleus.

Compound: lipopolysaccharide [LPS]
- serum TNF-α ([1]; LPS LD (35 mg/kg)): 792 pg/mL
- serum TNF-α ([1]; LPS SD (10 mg/kg)): 741 pg/mL
- Cit H3 in cultured cell medium ([2]; LPS 100 ng/ml): more
- H3 in cultured cell medium ([2]; LPS 100 ng/ml): more
- Cit H3 in cell lysates ([2]; LPS 100 ng/ml, compared to sham): increase
- Serum H3 ([3]; LPS SD (10 mg/kg i.p.)): increase
- serum Ac H3 ([3]; all animals (LPS SD and LD)): No Ac H3 was detected
- average survival time ([4]; LPS LD (35 mg/kg i.p.)): about 20 h
- earliest time of death ([4]; LPS LD (35 mg/kg i.p.)): ~16 h
- longest survival time ([4]; LPS LD (35 mg/kg i.p.)): 23 h
- time by which all mice died ([4]; LPS LD (35 mg/kg i.p.)): less than 23 h
- survival rate ([4]; LPS LD (35 mg/kg i.p.)): 0%
- Mice died within 23 h ([4]; LPS LD (35 mg/kg i.p.), n = 10): 10
- average survival time ([4]; LPS SD (10 mg/kg i.p.)): ~146 h
- earliest time of death ([4]; LPS SD (10 mg/kg i.p.)): 27 h
- survival rate ([4]; LPS SD (10 mg/kg i.p.)): 90%
- longest survival time ([4]; LPS SD (10 mg/kg i.p.), 168 h observation): 168 h
- Mice died within 23 h ([4]; LPS SD (10 mg/kg i.p.), n = 10): None
- Mice survived over 168 h ([4]; LPS SD (10 mg/kg i.p.), n = 10): 9
- serum histone H3 (Western blot) ([5]; LPS 20 mg/kg i.p. without SAHA): a histone H3 band was clearly observed

Compound: O=C(CCCCCCC(=O)Nc1ccccc1)NO [SAHA, suberoylanilide hydroxamic acid]
- survival [6]: improves survival
- histone H3 in serum (iTRAQ) [7]: decreased histone H3 in serum dramatically
- Cit H3 in cultured cell medium (secretion) ([2]; SAHA 10 μM + LPS 100 ng/ml): decreases; also recorded: no detectable
- H3 in cultured cell medium ([2]; SAHA 10 μM + LPS 100 ng/ml): no detectable
- acetylated H3 in cell lysates ([2]; SAHA 10 μM + LPS 100 ng/ml): increase
- expression of Cit H3 in cell lysates ([2]; SAHA 10 μM + LPS 100 ng/ml): decreases; also recorded: significantly reduced
- serum histone H3 (Western blot) ([5]; SAHA 50 mg/kg i.p. 2 h before and soon after LPS 20 mg/kg): no histone H3 was detected
